Test results taken from patent US20020128176A1, “Treatment of erectile dysfunctions with C-Type natriuretic polypeptide (CNP) as a monotherapy or in combination with phosphodiesterase inhibitors” (priority 1999, published 2002).
Where no end group is shown, it is not given here.

What was measured:
[1] = Tests made with male patients: induction of erection; type: in vivo, human; conditions: for erection / time for which the erection was maintained: male patients
[2] = test system: smooth muscle of the human corpus cavernosum penis; experiment: Functional organ bath studies: relaxation of norepinephrine-precontracted strip preparations of human cavernous muscles
Protocol: Functional organ bath studies:
Strip preparations of human cavernous muscles were fixed in the bath chambers of an organ bath plant (Isolated Organ Apparatus IOA 5306, Föhr Medical Instruments GmbH, Seeheim, Germany) filled with a modified Krebs-Ringer solution (NaCl 120 mM, NaHCO3 25.6 mM, KCl 4.7 mM, CaCl2 2.5 mM, NaH2PO4 1.2 mM, MgCl2 1.2 mM, glucose 22 mM, 2Na^+ (Ca^2+) EDTA 0.1 mM, pH 7.2-7.4). The temperature of the bath solution was controlled to 37° C., and a mixture of […] O2 and 5% CO2 was continuously sparkled through the solution. The application of a passive bias tension of 5 mN (0.5 g) was followed by an equilibration phase of 60 min. Subsequently, the muscle strips were stimulated with 6 μM norepinephrine (NOR). After a stable contraction plateau was reached, the peptides human atrial natriuretic peptide/cardiodilatin (ANP/CDD99-126) (for a survey, see Forssmann et al., 1998) and human C-type natriuretic peptide (CNP) (Ogawa et al., 1992), which are chemically synthesized in our laboratory, were added with cumulative dosage (0.01 to 1000 nM). Changes in the mechanical tension of the muscles were recorded with an analog-digital measured data acquisition system (MacLab®, AD Instruments, Castle Hill, Australia).

With `CCCc1nn(C)c2c(=O)[nH]c(-c3cc(S(=O)(=O)N4CCN(C)CC4)ccc3OCC)nc12` [Sildenafil, reference compound] the “necessary dose for the induction of an erection” value ([1]; combined, simultaneous application of CNP) was “significantly decreased” and the “side-effects (flickering in the eyes or headaches)” value ([1]; some subjects, combined application with CNP versus exclusive Sildenafil treatment) was “reduced, in part to complete disappearance”.

With “human atrial natriuretic peptide/cardiodilatin (SLRRSSCFGGRMDRIGAQSGLGCNSFRY; ends and bridges not checked; cysteine pairing not given here) [ANP/CDD99-126, Chemically synthesized peptide, the ligand of guanylate cyclase A, reference compound]” the “relaxation of precontracted smooth muscle (in words)” value ([2]; at corresponding concentrations (1 nM to 1 μM), precontracted with 6 μM norepinephrine) was “no significant relaxation”.

With “C-type natriuretic polypeptide (GLSKGCFGLKLDRIGSMSGLGC) [CNP, ligand of guanylate cyclase B]” the “concentration from which a significant relaxant effect is seen” value ([2]; strips precontracted with 6 μM norepinephrine, cumulative dosage 0.01 to 1000 nM) was 1 nM, the erection ([1]; intracavernous application) was “immediate erection” and the “time for which the erection was maintained” value ([1]; intracavernous application) was “about one”. For the same compound, the erection ([1]; intravenous application) was “immediate erection” and the “time for which the erection was maintained” value ([1]; intravenous application) was “about one”.
